Data published in the NIST ThermoML archive (doi:10.1016/j.jct.2017.10.014).

Details: Liquid; for mass density: 100 kPa, Vibrating tube method; for viscosity: 101.33 kPa, Concentric cylinders viscometry

CC(C)(CO)[C@@H](O)C(=O)NCCCO [d-Panthenol]
Details	mass density [kg/m3]	viscosity [mPa·s]
293.15 K	1165.18	527287
298.15 K	1161.68	261544
303.15 K	1158.27	125673
308.15 K	1154.96	68487
313.15 K	1151.46	37252
